Reference: BindingDB's records for doi:10.1016/s0960-894x(02)01041-7 (Seoul National University, 2003)

Molecular target: HT-29 cell line (Homo sapiens)
Assay: In vitro antiproliferative activity of compound against HT-29 (human colon caner ) cell line was determined by SRB assay

| IC50 | Structure (SMILES) |
| --- | --- |
| 113 µM | N#Cc1ccc(C=O)nc1SCc1c(Cl)cccc1Cl [2-(2,6-Dichloro-benzylsulfanyl)-6-formyl-nicotinonitrile] |
| 33.1 µM | O=Cc1cccc(C(=O)Sc2ccc(Cl)c(Cl)c2)n1 [6-Formyl-pyridine-2-carbothioic acid S-(3,4-dichloro-phenyl) ester] |
